# Results: a melting point compilation (Tetko et al.; mined from patent text by program, amines drawn as free bases though some values may be those of a salt)
row,SMILES,melting point
1,O=C(c1ccccc1SSc1ccccc1C(=O)N1CCSCC1)N1CCSCC1,90 to 92 °C
2,COC(=O)C(CNC(=O)c1ccccc1)NC(=O)C(C)(C)NC(=O)C(SC(C)=O)C(C)C (stereo unspecified),48 to 54 °C
3,C/C(=C\c1ccc(C(=O)O)cc1)c1ccc2c(c1)C(C)(C)C=CC2(C)C,234 to 236 °C
4,COC(=O)c1ccc(CN2CCc3ccc(S(=O)(=O)Nc4cccc(Cl)c4)cc3C2)o1,167 to 168 °C
5,CCOC(=O)c1ccc(NC(=O)C=C(c2ccc(C)cc2)c2ccc(C)cc2)cc1,151 to 154 °C
6,Cc1cc2cc(CN3CCCC3)cnc2cc1NC(=O)c1ccc(-c2ccco2)cc1,154 °C
7,CN1C(=O)CCC1(O)c1ccc(Cl)c(S(=O)(=O)NCCc2ccccc2)c1 (stereo unspecified),149 to 153 °C
8,CCc1nc(OC)c(NC(=O)N2CCN(c3cccc(O)c3)CC2)cc1C,168 to 170 °C
9,CCOC(=O)CCCCCCC1C(=O)NC(=O)N1CCC(=O)C1CCCCC1 (stereo unspecified),77.5 to 78.5 °C
10,CNc1nc(C(C)c2ccc(-c3ccc(F)cc3)c(F)c2)c(C(=O)O)s1 (stereo unspecified),195 to 196 °C
11,c1ccc(CCc2nc(COc3ccc(CCCn4ccnc4)cc3)co2)cc1,67 to 68 °C
12,CC(Oc1cccc(Oc2c(Cl)cc(C(F)(F)F)cc2Cl)c1)(C(=O)O)[N+](=O)[O-] (stereo unspecified),146 °C
13,CC(=O)c1ccc2c(c1)Cc1cccc(C(C)=O)c1-2,128 to 129 °C
14,C=CCOc1ccc(C(=O)C=Cc2ccc(OC)c(OC)c2)cc1,74.5 to 75 °C
15,Nc1ncc(C#Cc2ccc(Cl)cc2)c(Oc2ccc(O)cc2)n1,250 to 251 °C
16,O=C1CC(=C[N+](=O)[O-])Nc2ccc(Cl)cc2N1c1ccccc1,248 to 251 °C
17,N#CSCSc1sccc1[N+](=O)[O-],51 to 53 °C
18,COc1cc(-c2cnc3[nH]cc(C(=O)C(=O)N(C)C)c3n2)cc(OC)c1OC,227 to 228 °C
19,COC(=O)c1cc2sccc2s1,96 to 97 °C
20,CS(=O)c1c(C=NO[Si](C)(C)C(C)(C)C)nn(-c2c(Cl)cc(C(F)(F)F)cc2Cl)c1N (stereo unspecified),150 to 154 °C
21,Cc1c(C(=O)O)oc2cc(-c3ccc(Cn4c(C)nc5ccccc54)cc3)ccc12,295 to 297 °C
22,CCn1cnc2cc(C(F)(F)F)c(Cl)c(N)c21,192 to 193 °C
23,Cc1nc(-c2c(F)cccc2F)nn1-c1ccccc1C(F)(F)F,80 to 82 °C
24,C=Cc1cc(CNC(=O)C(F)=Cc2ccc(C(C)(C)C)cc2)cc(F)c1NS(C)(=O)=O,165 to 167 °C

row,SMILES,melting point
1,CC(=O)Nc1c(C(=O)c2cccc(C)c2)[nH]c2cc(Cl)ccc12,96 to 100 °C
2,CCCCc1nc2ccn(Cc3ccc(N)cc3)c(=O)c2n1Cc1ccc(-c2ccccc2C#N)cc1,223 °C
3,CC(=NOCc1ccccc1)C(C)Oc1ccccc1NC(=O)c1cccnc1Cl (stereo unspecified),53 to 55 °C
4,Oc1c(Cc2ccccc2)cc(Br)c2ccccc12,123 to 125 °C
5,CCc1ccc(C(=O)Oc2ccc(C(=O)O)cc2)cc1C12CC3CC(CC(C3)C1)C2,239 to 241 °C
6,CN1CC(CN2CCC(C(O)(c3ccc(F)cc3)c3ccc(F)cc3)CC2)OC1=O (stereo unspecified),147 to 148 °C
7,Cc1cn(C(C)(C)C(=O)N(C)C)nc1-c1cccc(Cl)c1,144 to 146 °C
8,CC(C)(C)n1ncc(NCCN2CCNC(c3cccc(C(F)(F)F)c3)C2)c(Cl)c1=O (stereo unspecified),124 to 127 °C
9,CNC(=O)N(O)C(C)c1cc2cc(Cl)ccc2[nH]1 (stereo unspecified),159 to 160 °C
10,NCCc1ccc(-c2ccc(O)cc2)cc1,> 350 °C
11,CCC(CC)Nc1nc(C)nc(Nc2c(C)cc(C)nc2C)c1[N+](=O)[O-],151 to 152 °C
12,Cn1cnc(COc2nn3c(-c4ccccc4F)nnc3cc2C23CCC(C2)C3)n1,170 to 172 °C
13,CCCC(=O)c1cnc2c(OCC)nccc2c1Nc1ccccc1C,112 °C
14,Fc1ccc(-c2nnc(Cl)cc2Cl)cc1,124 to 127 °C
15,CC(=O)OCCCNC(=O)CCC(NC(=O)C=Cc1ccco1)C(=O)NCCCOC(C)=O (stereo unspecified),132 to 134 °C
16,Cc1cc([N+](=O)[O-])cc(C(=O)NC(C)C)c1NC(=O)c1cc(C(F)(F)F)nn1-c1ncccc1Cl,170 to 172 °C
17,CC1=C(C(=O)OC(C)(C)C)C(c2cc(Cl)ccc2Cl)C(C(=O)OC(C)(C)C)=C(C)N1,181 to 183 °C
18,CCn1c(C)nc2cc(C(F)(F)F)cc(N)c21,144 to 145 °C
19,CCOC(=O)Nc1cccc2c1CN(C)CC2c1ccc(Cl)cc1 (stereo unspecified),155 °C
20,O=S(c1ccccc1)c1cccnc1 (stereo unspecified),56 °C
21,CCSc1nc(C#N)c(C#N)nc1C,91.5 to 92.5 °C
22,Nc1ccc(-c2ncn(-c3ccc(OC(F)(F)F)cc3)n2)cc1,147 °C
23,O=C(c1cnc2ccccc2c1)N1CCC(c2ccccc2)=N1,107 to 112 °C
24,Cn1c(CNc2ccc(Oc3cccc(C(F)(F)F)c3)cc2)nc([N+](=O)[O-])c1C#N,124 to 126 °C

row,SMILES,melting point
1,CSC1C(=O)Nc2ccc(-c3ccccc3)cc21 (stereo unspecified),170 to 172 °C
2,CC(=O)C1CCC2C3CCC4CCCCC4(C)C3CCC12C (stereo unspecified),84 to 90 °C
3,NC(=O)NC1CCCc2ccsc21 (stereo unspecified),211 to 213 °C
4,CCOC(=O)c1cn(C2CC2)c2c(F)c(F)c(F)c(C)c2c1=O,176 to 177 °C
5,COC(C)c1cccc2[nH]c3cnc(C(=O)OC(C)C)c(C)c3c12 (stereo unspecified),153 to 154 °C
6,Nc1cccc(-c2ccccc2O)c1,158 to 161 °C
7,CCC(C)(CC)c1nnc(NC(=S)c2c(OC)cccc2OC)s1,202 to 204 °C
8,O=S1(=O)N=CN(C2CCCCCC2)c2cc(Cl)c(Cl)cc21,222 to 224 °C
9,COCCONC(=O)c1nc(-c2ccc(Cl)c(OC)c2F)cc(N)c1Cl,155 to 157 °C
10,OCC(CO)c1nc(NCc2ccccn2)c2c(-c3ccccc3)csc2n1,137 to 139 °C
11,Cc1cc(C#N)cc(C(=O)Nc2cccc(F)c2)n1,139 °C
12,COc1ccc2c(c1)C(=O)C(=O)C1=C2OC2(CCN(CC(O)Cc3ccccc3)CC2)CS1 (stereo unspecified),146 to 147 °C
13,O=C1CCCc2nc3ccccc3c(NCc3cccc(C(F)(F)F)c3)c21,147 to 149 °C
14,O=S(c1ccccc1)c1ccc(Cc2csc(Br)n2)cc1 (stereo unspecified),82 °C
15,Cn1c2ccccc2c2c3c(c4c5cc(O)ccc5n(CCC#N)c4c21)C(=O)NC3=O,303 to 306 °C
16,COC1CCC(OS(=O)(=O)c2ccc(C)cc2)C(COS(=O)(=O)c2ccc(C)cc2)O1 (stereo unspecified),110 to 112 °C
17,CCCCc1nc2c(N)nc3ccc(OCc4ccccc4)cc3c2n1CCCCNS(=O)(=O)c1ccccc1,204 to 205 °C
18,COC(=O)C1(C(=O)OC)CCn2c(C(=O)c3ccccc3)cc(Br)c21,109 to 110 °C
19,CCCn1nc2c(NC)nc3ccccc3c2c1N,200 to 201 °C
20,CC(C)(C)NC(=O)N(CCc1ccccc1)CC(O)C(Cc1ccccc1)NC(=O)C(CC(N)=O)NC(=O)c1ccc2ccccc2n1 (stereo unspecified),139 to 140 °C
21,COc1ccc2c(c1)Sc1cc(C#N)ccc1N2,198 to 199 °C
22,Cc1[nH]c(-c2ccccc2)c(NC(C)C)c1C(=O)c1ccccc1,132 to 136 °C
23,CCOC(C)C(=O)c1cc(C(C)(C)C)c(O)c(C(C)(C)C)c1 (stereo unspecified),64 °C
